Data set [1] addresses T1, human PPARγ ligand-binding domain (Homo sapiens, UniProt P37231).
T1 construct: The kit uses the human-derived recombinant PPARγ LBD tagged with an N-terminal GST-tag; purchased Invitrogen
T1 sequence (P37231 238-503 limits assumed): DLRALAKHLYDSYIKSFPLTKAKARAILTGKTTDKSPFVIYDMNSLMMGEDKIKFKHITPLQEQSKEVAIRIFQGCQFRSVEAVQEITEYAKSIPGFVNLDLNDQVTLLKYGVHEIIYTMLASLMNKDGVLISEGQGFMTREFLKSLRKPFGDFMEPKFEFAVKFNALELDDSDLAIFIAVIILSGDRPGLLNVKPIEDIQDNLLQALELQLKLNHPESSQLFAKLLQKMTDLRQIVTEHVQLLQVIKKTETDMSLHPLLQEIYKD
Kind of data set: PolarScreen PPARγ-Competitor fluorescence polarization ligand binding assay. For orientation: Polarisation of emitted light reports the rotation of a fluorescent probe.

The subject of data set [2] is PPARγ2. Also noted: method as in Suzuki et al. (2013). As to conditions: U2OS reporter assay; ref Suzuki et al. (2013); cited from earlier work. (Reporter assays use an easily measured gene product as a stand-in for the process of interest.)
A short description of data set [3]: MEHP formation on incubation of dust with S9 fraction. Type of data set: in vitro ADME, Sprague-Dawley rats. Here is the method:
Bioactivation of dust samples. We assessed the influence of biotransformation on ligand binding activity by incubating dust extracts in pooled liver S9 fractions prepared from Sprague-Dawley rats [Rat (Sprague-Dawley) S9 Fractions; Gibco, Grand Island, NY). Bioactivation was assessed in 7 of the 23 dust samples (1 dust sample was tested in triplicate, while the others were tested once because of dust mass limitations) and in SRM 2585 (n = 3). The 7 dust samples were from groups A (samples 5, 7, and 8), B (samples 9 and 10), and C (samples 11 and 12). The influence of biotransformation was also investigated using pure chemical standards. DEHP (100 μM) and a mixture (MIX) containing 1 μM each of FM550, isopropylated triaryl phosphate (ITP), BDE-47, BDE-99, and DEHP were evaluated for binding activity before and after bioactivation. For a detailed description of the method, see Supplemental Material, “Bioactivation of Dust Samples” and Figure S3. Briefly, dust samples were bioactivated by incubation with an S9 fraction (1 mg protein/mL), extracted, and cleaned by dextran-assisted liquid–liquid extraction and phenolic extraction. […]
For each dose level of tested compounds, triplicate samples were prepared and each well was read five times in the plate reader. […]

Data set [4] concerns the target T2, PPARγ LBD (Homo sapiens, UniProt P37231).
T2 construct: The kit uses the human-derived recombinant PPARγ LBD tagged with an N-terminal GST-tag; purchased Invitrogen
T2 sequence (P37231 238-503 limits assumed): T1 sequence (P37231 238-503 limits assumed)
Kind of data set: PPARγ competitive binding after bioactivation with rat liver S9 fraction (active vs inactive S9). As to conditions: 100 μM, n = 3, rat liver S9.

Setting [5] is: read-out: Kd (dissociation constant).
The mark [6] stands for this setting: calculated from IC50 by equation 3, read-out: Kd (dissociation constant).

Read-outs that look alike come from different tables or passages of the source.

Usually IC50 stands for the concentration that inhibits the measured activity by half. As a reminder, the Kd is the free concentration of one partner at which half of the binding sites on the other are occupied at equilibrium, for simple one-to-one binding. In data set [1], `Oc1c(I)cc(I)cc1I` [2,4,6-TIP, 2,4,6-triiodophenol] gave a half-maximal inhibitory concentration (IC50) of 1.84 µM, a Kd of 0.96 µM and a Relative potency of 0.1250.

For `CCCCOCCOP(=O)(OCCOCCCC)OCCOCCCC` [TBEP, tris(2-butoxyethyl) phosphate], in data set [1], the concentration for half-maximal inhibition (IC50) is 103 µM, the Kd was found to be 53.7 µM and the Relative potency was 0.0022.

With `Brc1ccc(Oc2ccc(Br)cc2Br)c(Br)c1` [BDE-47, 2,2´,4,4´-tetrabromodiphenyl ether], the 50% inhibitory concentration (IC50) in data set [1] (read-out: IC50) is greater than 12 µM. The Kd in data set [1] (setting [5]) is greater than 6.25 µM. In addition, the 5% induction concentration in data set [2] is 10 µM.

Turning to `Oc1cc(Br)cc(Br)c1Oc1ccc(Br)cc1Br` [6-OH-BDE-47], in data set [1], the “PPARγ binding (in words)” value is “not active ligands” and the Relative potency is on record as less than 0.023. The IC50 in data set [1] (read-out: IC50) is greater than 10 µM. In addition, the Kd in data set [1] (setting [5]) is greater than 5.22 µM.

`Oc1cc(Oc2ccc(Br)cc2Br)c(Br)cc1Br` [5-OH-BDE-47] gave a Relative potency in data set [1] of 0.0744. For the same compound, the concentration for half-maximal inhibition (IC50) in data set [1] (read-out: IC50) came to 3.09 µM. Also, the Kd in data set [1] (setting [5]) came out at 1.61 µM.

On to `Oc1cc(Br)cc(Br)c1Oc1cc(Br)c(Br)cc1Br` [6´-OH-BDE-99], for which, in data set [1], the “PPARγ binding (in words)” value was “not active ligands” and the Relative potency is given as less than 0.0046. Moreover, the IC50 in data set [1] (read-out: IC50) was greater than 50 µM. In addition, the Kd in data set [1] (setting [5]) is greater than 26.1 µM.

The compound `Oc1c(Cl)cc(Cl)cc1Cl` [2,4,6-TCP, 2,4,6,-trichlorophenol] returned a Relative potency in data set [1] of 0.0023. The 50% inhibitory concentration (IC50) in data set [1] (read-out: IC50) was found to be 100 µM. In addition, the dissociation constant Kd in data set [1] (setting [5]) was determined as 52.2 µM.

As to `Brc1ccc(Oc2cc(Br)c(Br)cc2Br)c(Br)c1` [BDE–99, 2,2´,4,4´,5-pentabromodiphenyl ether], the “PPARγ binding (in words)” value in data set [1] is recorded as “no binding was observed”. Further, in data set [1] (read-out: IC50), the half-maximal inhibitory concentration (IC50) is greater than 250 µM. For the same compound, the Kd in data set [1] (setting [5]) is greater than 130 µM.

In data set [1], `O=P(O)(Oc1ccccc1)Oc1ccccc1` [DPP, diphenyl phosphate] yielded an IC50 of 627 µM, an equilibrium dissociation constant (Kd) of 327 µM and a Relative potency of 0.0004.

In the case of `CCCCC(CC)COC(=O)c1ccccc1C(=O)O` (centres unmarked) [MEHP, mono(2-ethylhexyl) phthalate], the MEHP formation rate result in data set [3] was “approximately 70 pmol/mg protein/min”.

Consider `CC(C)(c1ccc(O)cc1)c1ccc(O)cc1` [BPA, bisphenol A], for which the “PPARγ binding (in words)” value in data set [1] is recorded as “did not exhibit any binding”. Further, the half-inhibitory concentration (IC50) in data set [1] (read-out: IC50) was greater than 250 µM. In addition, the dissociation constant Kd in data set [1] (setting [5]) was greater than 130 µM.

In data set [1], `[Cl][Sn]([c]1ccccc1)([c]1ccccc1)[c]1ccccc1` [TPT, triphenyltin chloride] displayed a Relative potency of 0.1337. In data set [1] (read-out: IC50), the IC50 was 1.72 µM. Moreover, the Kd in data set [1] (setting [5]) turned out to be 0.9 µM.

As to `CCCCC(CC)COC(=O)c1c(Br)c(Br)c(Br)c(Br)c1C(=O)OCC(CC)CCCC` (centres unmarked) [TBPH, bis(2-ethylhexyl) tetrabromophthalate], in data set [1], the IC50 was greater than 250 µM, the equilibrium dissociation constant (Kd) is greater than 130 µM and the “PPARγ binding (in words)” value is given as “did not show any binding activity”.

In data set [1], `Oc1c(Br)cc(Br)cc1Br` [2,4,6-TBP, 2,4,6-Tribromophenol] returned a concentration for half-maximal inhibition (IC50) of 36.3 µM, a Kd of 18.9 µM and a Relative potency of 0.0063.

Regarding `Oc1c(F)cc(F)cc1F` [2,4,6-TFP, 2,4,6-trifluorophenol], the dissociation constant Kd in data set [1] (setting [6]) is greater than 130 µM. For the same compound, the half-inhibitory concentration (IC50) in data set [1] (read-out: IC50) is greater than 250 µM.

In data set [1], `O=P(Oc1ccccc1)(Oc1ccccc1)Oc1ccccc1` [TPP, triphenyl phosphate] yielded an IC50 of 40 µM, a Kd of 20.9 µM and a Relative potency of 0.0058.

Take `CCCCC(CC)COC(=O)c1ccccc1C(=O)OCC(CC)CCCC` (centres unmarked) [DEHP, di-(2-ethylhexyl) phthalate]: in data set [1] (setting [6]), the dissociation constant Kd was greater than 130 µM. Moreover, in data set [1] (read-out: IC50), the IC50 is greater than 250 µM. Further, in data set [4], the “change of PPARγ binding potency after bioactivation (in words)” value is “slightly increased”.

`Oc1c(Br)ccc(Oc2ccc(Br)cc2Br)c1Br` [3-OH-BDE-47] registered a Relative potency in data set [1] of 0.9583. For the same compound, in data set [1] (read-out: IC50), the 50% inhibitory concentration (IC50) amounted to 0.24 µM. Also, in data set [1] (setting [5]), the Kd is 0.13 µM.

For the compound `Oc1cc(Oc2cc(Br)c(Br)cc2Br)c(Br)cc1Br` [5´-OH-BDE-99], the Relative potency in data set [1] is 0.0077. The half-maximal inhibitory concentration (IC50) in data set [1] (read-out: IC50) worked out at 30 µM. In addition, in data set [1] (setting [5]), the equilibrium dissociation constant (Kd) was 15.7 µM.

As to `O=C(O)c1cc(Br)c(Br)c(Br)c1Br` [TBBA, 2,3,4,5-tetrabromo benzoic acid], in data set [1], the half-maximal inhibitory concentration (IC50) stood at 42 µM, the Kd came to 22.1 µM and the Relative potency is 0.0055.

Regarding `CC(C)(c1cc(Cl)c(O)c(Cl)c1)c1cc(Cl)c(O)c(Cl)c1` [TCBPA, 3,3´,5,5´-tetrachlorobisphenol A], in data set [1], the Relative potency was found to be 0.0444. In data set [1] (read-out: IC50), the IC50 was 5.18 µM. Moreover, in data set [1] (setting [5]), the Kd was 2.7 µM.

On to `CCCCC(CC)COC(=O)c1cc(Br)c(Br)c(Br)c1Br` (centres unmarked) [TBB, 2-ethylhexyl-2,3,4,5-tetrabromobenzoate], for which, in data set [1], the IC50 is greater than 250 µM, the Kd is greater than 130 µM and the “PPARγ binding (in words)” value was “did not show any binding activity”.

Consider `Oc1cc(Cl)ccc1Oc1ccc(Cl)cc1Cl` [Triclosan, triclosan], for which, in data set [1], the IC50 worked out at 12.5 µM, the Kd was 6.52 µM and the Relative potency was determined as 0.0184.

The record behind these values is PMC4314249, “Characterizing the Peroxisome Proliferator-Activated Receptor (PPARγ) Ligand Binding Potential of Several Major Flame Retardants, Their Metabolites, and Chemical Mixtures in House Dust” (Environmental Health Perspectives, 2014).
